# Reference: patent US8101368B2, “Quantitation of cellular DNA and cell numbers using element labeling” (DVS Sciences Inc., priority 2006, dated 2012)
# How the values were obtained:
# KG-1a cells = assay: Viability with trypan blue of cells cultured in Pd-supplemented media; format: cell-based; settings: 500 ppb Pd in growth media, 72 hours
# Protocol: (§1) The experiment was set up to investigate if metals passively accumulated by cells could be indicative of cell number and cell type. For this purpose two different leukemia cell lines were cultured for 72 hours in growth media supplemented with very low amounts of rare earth metals: 100 ppb Rh was added to MBA-1 cells, and 500 ppb Pd was added to KG-1a cells which express the cell surface marker. During the three days of cell culture, aliquots of cells were tested for viability with trypan blue. […] Cells were collected by centrifugation (1200 rpm, 10 minutes), washed once in PBS/10% FBS and counted in a hemocytometer. Serial dilutions were prepared to give 1×10^6, 0.5×10^6, 1×10^5, 1×10^4, 1×10^3, and 1×10^2 KG-1a cells in a population of MBA-1 cells (1×10^6) per tube in triplicates (Table 1). In this example Pd will reflect the number of KG-1a cells and the presence of surface marker CD34 will specify the cell type, while MBA-1 cells are marked by Rh. Immunolabeling was carried out by adding anti-CD34 antibodies to tubes containing decreasing amounts of live KG-1a cells and incubating for 45 minutes on ice. Negative control tubes were reacted with the IgG1 isotype control immunoglobulins. After three low speed centrifugation washes with PBS/10% FBS all samples were incubated with biotinylated anti-mouse antibodies. […]
# MBA-1 cells [1] = assay: Viability with trypan blue of cells cultured in Rh-supplemented media; format: cell-based; settings: 100 ppb Rh in growth media, 72 hours
# Protocol: as §1
# DNA = settings: rhodium/base pair ratios of 2:1; cited from earlier work
# MBA-1 cells [2] = assay: Binding of increasing concentrations of Rh(III) intercalator to fixed/permeabilized cells, ICP-MS; format: cell-based; settings: 2.5 nanoM to 250 microM, 45 minutes, 1×10^6 fixed/permeabilized cells; linear response
# Protocol: Binding of an intercalator to DNA is governed by the law of mass action. Assuming that a mammalian cell in G1 phase has 3.3×10^9 DNA base pairs of which only 10-70% are free from protein interaction (nucleosomes) and available for binding with the intercalator (one molecule per two base pairs at saturation), the number of molecules of dye needed is approximately 1-10×10^8. Thus for [Rh(phi)2bpy]Cl3, with 671 MW, 1 ml of 200 uM solution should be 100-fold excess of intercalator over DNA binding sites for 1×10^6 cells. The binding of various amounts of the Rh(III) intercalator with cultured cells was assessed. MBA-1 cells were fixed in 3.7% formaldehyde/PBS for 15 minutes, followed by permeabilization with 0.3% TRITON™ X-100/PBS; washed once with PBS and incubated for 45 minutes with 1 ml of increasing concentrations of [Rh(phi)2bpy]Cl3 from 2.5 nanoM to 250 microM. Each sample contained 1×10^6 cells, run in triplicates. Following washing, the cell pellets were treated with concentrated HCl, mixed with an equal volume of 1 ppb Ir internal standard, and analyzed in solution by ICP-MS.
# MBA-1 cells [3] = test system: MBA-1 cells
# Protocol: Reactivity of the Rh(III) metallointercalator with fixed and fixed/permeabilized versus live cells was also examined. Equal amounts of MBA-1 cells (1×10^6) were either fixed/permeabilized as above, fixed in 3.7% formaldehyde alone or left untreated (live cells). After two washes in PBS the cells were incubated with 200 uM [Rh(phi)2bpy]Cl3 for 30 minutes; washed three more times and dissolved in HCl.
# K562 cells = assay: Cell cycle synchronization checked by propidium iodide flow cytometry; format: cell-based
# Protocol: Cells were synchronized in G1/S and G2/M phases of the cell cycle using a DNA synthesis inhibitor, thymidine, followed by a mitotic inhibitor, nocodazole. The DNA content of the G0/G1 phase is centered at 2n. Treatment with double thymidine results in a G1/S-phase arrested cell population with approximately […]. Nocodazole addition following a single thymidine treatment arrests cells in the G2/M stage with 4n DNA content. K562 cells were treated with 2 mM thymidine added to culture medium for 17 hours. The cells were then washed and incubated in fresh media for 9 hours. At the end of this rest period the culture was split into two flasks—one received the second dose of 2 mM thymidine (double thymidine block) to arrest cells at G1/S; the other—0.2 ug/ml nocodazole (single thymidine-nocodazole block) to arrest cells at the M phase. The inhibitors were left in culture media for 17 hours. […] After several washes the cells were digested in concentrated HCl and analyzed by ICP-MS. […] Treatment of stained cells with enzymes shifts the detected Rh values due to enhanced binding of metallointercalator to naked DNA. […] In the case of RNAse A treatment—degradation of small RNA molecules bound to DNA such as siRNA that may block interaction of intercalator and DNA may lead to higher detected Rh values.
smiles,measurement,setting,value
"[Pd] [Pd, palladium]",Cell death due to presence of metal in media,KG-1a cells,No excessive cell death
"[Rh] [Rh, rhodium]",Cell death due to presence of metal in media,MBA-1 cells [1],No excessive cell death
[Cl-].[Cl-].[Cl-].[NH-]c1c([NH-])c2ccccc2c2ccccc12.[NH-]c1c([NH-])c2ccccc2c2ccccc12.[Rh].c1ccc(-c2ccccn2)nc1 [[Rh(phi)2bpy]Cl3],Sequence dependence of binding to DNA,DNA,sequence neutral and random
same,Saturation of DNA binding (normalized Rh signal response),MBA-1 cells [2],without reaching a saturation limit
same,Membrane permeability in live cells,MBA-1 cells [3],membrane impermeable
COC(=O)Nc1nc2ccc(C(=O)c3cccs3)cc2[nH]1 [nocodazole],Cell cycle phase after block,"K562 cells; single thymidine-nocodazole block, 0.2 ug/ml nocodazole, 17 hours",practically all cells were in M phase
Cc1cn([C@H]2C[C@H](O)[C@@H](CO)O2)c(=O)[nH]c1=O [thymidine],Cell cycle phase after block,"K562 cells; double thymidine block, 2 mM, 17 hours each",majority of cells were in G1/S
